Laboratory results: ChEMBL document CHEMBL1134828, “The synthesis of cyclic tetrapeptoid analogues of the antiprotozoal natural product apicidin” (2001)
≈ marks a conversion by molar mass, not a printed value.

Legend:
Trypanosoma brucei = assay: Effective dose required for antiprotozoal activity against Trypanosoma brucei; type: functional; settings: read-out: ED50
Plasmodium falciparum = assay: Effective dose for antimalarial activity against Plasmodium falciparum; type: functional; settings: read-out: ED50
Trypanosoma cruzi [1] = assay: Effective dose required for antiprotozoal activity against Trypanosoma cruzi; type: functional; settings: read-out: ED50
Leishmania donovani [2] = assay: Effective dose required for antiprotozoal activity against Leishmania donovani; type: functional; settings: read-out: ED50
[3] = Cytotoxicity tested against KB cells of human nasopharyngeal epithelial cell line; type: functional; settings: read-out: ED50 (the source's name)
Leishmania donovani [4] = assay: Effective dose required for antiprotozoal activity against Leishmania donovani; T: Toxicity to both mouse macrophage host cells and intracellular parasites prevented determination of antiprotozoal activity; type: functional, organism-based
Trypanosoma cruzi [5] = assay: Effective dose required for antiprotozoal activity against Trypanosoma cruzi; T: Toxicity to both mouse macrophage host cells and intracellular parasites prevented determination of antiprotozoal activity; type: functional, organism-based

CCC(=O)CCCCC[C@@H]1NC(=O)[C@H]2CCCN2C(=O)[C@H]([C@@H](C)CC)NC[C@H](Cc2c[nH]c3ccccc23)NC1=O
EC50 (Trypanosoma brucei): 11.1 µg/mL (≈ 19.6 µM) | EC50 (Plasmodium falciparum): > 1 µg/mL | EC50 (Trypanosoma cruzi [1]): > 30 µg/mL | EC50 (Leishmania donovani [2]): > 30 µg/mL

CCC(=O)CCCCC[C@@H]1NC(=O)[C@H]2CCCN2C(=O)[C@H]([C@@H](C)CC)N(C(C)=O)C[C@H](Cc2c[nH]c3ccccc23)NC1=O
EC50 (Trypanosoma brucei): 13 µg/mL (≈ 21.3 µM) | EC50 (Plasmodium falciparum): > 1 µg/mL | EC50 (Trypanosoma cruzi [1]): > 30 µg/mL | EC50 (Leishmania donovani [2]): > 30 µg/mL

CCC(=O)CCCCC[C@@H]1NC(=O)[C@H]2CCCCN2C(=O)[C@H]([C@@H](C)CC)NC(=O)[C@H](Cc2cn(OC)c3ccccc23)NC1=O [APICIDIN]
EC50 [3]: 200 µg/mL (≈ 321 µM) | EC50 (Trypanosoma brucei): 1.9 µg/mL (≈ 3.05 µM) | EC50 (Plasmodium falciparum): 0.22 µg/mL (≈ 0.353 µM) | ED50 (Leishmania donovani [4]): Toxic | ED50 (Trypanosoma cruzi [5]): Toxic
